Assay results taken from patent publication EP4667467A1, “PROTAC DEGRADERS OF MLLT1 AND/OR MLLT3” (Dark Blue Therapeutics Ltd, priority 2024, dated 2025).

Biological target: T1, MLLT1 (Homo sapiens, UniProt Q03111)
T1 construct: endogenous in cells; host or cells: MV4-11 (ATCC CRL-9591)
T1 sequence (Q03111 1-559): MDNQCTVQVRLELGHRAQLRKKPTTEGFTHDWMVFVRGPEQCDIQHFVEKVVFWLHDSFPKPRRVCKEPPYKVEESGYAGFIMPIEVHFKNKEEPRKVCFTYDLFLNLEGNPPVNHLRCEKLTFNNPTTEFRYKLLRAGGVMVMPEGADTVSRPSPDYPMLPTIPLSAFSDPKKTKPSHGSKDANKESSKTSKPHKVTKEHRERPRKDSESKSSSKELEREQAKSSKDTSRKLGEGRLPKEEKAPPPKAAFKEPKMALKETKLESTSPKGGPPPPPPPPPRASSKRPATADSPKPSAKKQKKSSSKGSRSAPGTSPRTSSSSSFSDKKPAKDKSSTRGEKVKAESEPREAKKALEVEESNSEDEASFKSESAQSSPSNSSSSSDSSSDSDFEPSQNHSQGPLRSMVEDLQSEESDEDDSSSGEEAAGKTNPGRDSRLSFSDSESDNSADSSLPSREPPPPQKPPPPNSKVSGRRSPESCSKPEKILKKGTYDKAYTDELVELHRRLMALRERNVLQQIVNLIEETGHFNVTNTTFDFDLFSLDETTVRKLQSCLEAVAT
Assay: MLLT1 Degradation Assay (JESS automated chemiluminescent detection, MV4-11 cells)
Assay type: cell-based
Conditions: 24h, with respect to DMSO control; for MLLT1 % Degradation @ 0.01 µM: 0.01 µM (10 nM) test compound; for MLLT1 % Degradation @ 0.1 µM: 0.1 µM (100 nM) test compound; for MLLT 1 % Degradation @ 1 µM: 1 µM (1000 nM) test compound
Experimental: MLLT1 degradation efficacy of compounds were tested in an automated chemiluminescent detection system (JESS, Cat# 004-650). […] 10 mM DMSO stocks were prepared, and cells were treated with three concentrations of test compounds viz. 1000, 100 and 10 nM at a final DMSO concentration of 0.1% and incubated for 24h at 37°C, 5% CO2. […] Post run, data were analysed using "Compass for SW" software for chemiluminescent detection. The peak area for each band was used for the calculation of MLLT1 degradation with respect to DMSO control. Data is shown as "MLLT1 % degradation".

CN1CCC[C@@H]1c1[nH]c2cc(NC(=O)CCCCCCNc3cccc4c3C(=O)N(C3CCC(=O)NC3=O)C4=O)ncc2c1Cl (stereo partly drawn) [Example 33, N-{3-chloro-2-[(2R)-1-methylpyrrolidin-2-yl]-1H-pyrrolo[3,2-c]pyridin-6-yl}-7-{[2-(2,6-dioxopiperidin-3-yl)-1,3-dioxoisoindol-4-yl]amino}heptanamide]
MLLT1 % Degradation @ 0.01 µM: B (Category B: 50% ≤ B < 75% degradation)
MLLT1 % Degradation @ 0.1 µM: A (Category A: A ≥ 75% degradation)
MLLT 1 % Degradation @ 1 µM: A (Category A: A ≥ 75% degradation)

CN1CCC[C@@H]1c1cc2cnc(NC(=O)c3ccc(-c4cnn(CCCC5CCN(c6cccc7c6C(=O)N(C6CCC(=O)NC6=O)C7=O)CC5)c4)cc3)cc2[nH]1 (stereo partly drawn) [Example 34, 4-[1-(3-{1-[2-(2,6-dioxopiperidin-3-yl)-1,3-dioxoisoindol-4-yl]piperidin-4-yl}propyl)pyrazol-4-yl]-N-{2-[(2R)-1-methylpyrrolidin-2-yl]-1H-pyrrolo[3,2-c]pyridin-6-yl}benzamide]
MLLT1 % Degradation @ 0.1 µM: A (Category A: A ≥ 75% degradation)
MLLT 1 % Degradation @ 1 µM: A (Category A: A ≥ 75% degradation)

CN1CCC[C@@H]1c1cc2cnc(NC(=O)c3ccc(-c4cnn(CCCC5CCN(c6cccc7c6CN(C6CCC(=O)NC6=O)C7=O)CC5)c4)cc3)cc2[nH]1 (stereo partly drawn) [Example 35, 4-[1-(3-{1-[2-(2,6-dioxopiperidin-3-yl)-1-oxo-3H-isoindol-4-yl]piperidin-4-yl}propyl)pyrazol-4-yl]-N-{2-[(2R)-1-methylpyrrolidin-2-yl]-1H-pyrrolo[3,2-c]pyridin-6-yl}benzamide]
MLLT1 % Degradation @ 0.01 µM: A (Category A: A ≥ 75% degradation)
MLLT1 % Degradation @ 0.1 µM: A (Category A: A ≥ 75% degradation)
MLLT 1 % Degradation @ 1 µM: A (Category A: A ≥ 75% degradation)

CN1CCC[C@@H]1c1cc2cnc(NC(=O)c3ccc(CCCNc4cccc5c4C(=O)N(C4CCC(=O)NC4=O)C5=O)cc3)cc2[nH]1 (stereo partly drawn) [Example 36, 4-(3-{[2-(2,6-dioxopiperidin-3-yl)-1,3-dioxoisoindol-4-yl]amino}propyl)-N-{2-[(2R)-1-methylpyrrolidin-2-yl]-1H-pyrrolo[3,2-c]pyridin-6-yl}benzamide]
MLLT1 % Degradation @ 0.01 µM: A (Category A: A ≥ 75% degradation)
MLLT1 % Degradation @ 0.1 µM: A (Category A: A ≥ 75% degradation)
MLLT 1 % Degradation @ 1 µM: A (Category A: A ≥ 75% degradation)

CN1CCC[C@H]1c1cc2cnc(NC(=O)c3ccc(CCCNc4cccc5c4C(=O)N(C4CCC(=O)NC4=O)C5=O)cc3)cc2[nH]1 (stereo partly drawn) [Example 37, 4-(3-{[2-(2,6-dioxopiperidin-3-yl)-1,3-dioxoisoindol-4-yl]amino}propyl)-N-{2-[(2S)-1-methylpyrrolidin-2-yl]-1H-pyrrolo[3,2-c]pyridin-6-yl}benzamide]
MLLT1 % Degradation @ 0.01 µM: B (Category B: 50% ≤ B < 75% degradation)
MLLT1 % Degradation @ 0.1 µM: A (Category A: A ≥ 75% degradation)
MLLT 1 % Degradation @ 1 µM: A (Category A: A ≥ 75% degradation)

CN1CCC[C@@H]1c1cc2cnc(NC(=O)c3cnn(CCCC4CCN(c5cccc6c5C(=O)N(C5CCC(=O)NC5=O)C6=O)CC4)c3)cc2[nH]1 (stereo partly drawn) [Example 38, 1-(3-{1-[2-(2,6-dioxopiperidin-3-yl)-1,3-dioxoisoindol-4-yl]piperidin-4-yl}propyl)-N-{2-[(2R)-1-methylpyrrolidin-2-yl]-1H-pyrrolo[3,2-c]pyridin-6-yl}pyrazole-4-carboxamide]
MLLT1 % Degradation @ 0.01 µM: D (Category D: D < 25% degradation)
MLLT1 % Degradation @ 0.1 µM: D (Category D: D < 25% degradation)
MLLT 1 % Degradation @ 1 µM: C (Category C: 25% ≤ C < 50% degradation)

CN1CCC[C@@H]1c1cc2cnc(NC(=O)COCCCCNc3cccc4c3C(=O)N(C3CCC(=O)NC3=O)C4=O)cc2[nH]1 (stereo partly drawn) [Example 40, 2-(4-((2-(2,6-dioxopiperidin-3-yl)-1,3-dioxoisoindolin-4-yl)amino)butoxy)-N-(2-((R)-1-methylpyrrolidin-2-yl)-1H-pyrrolo[3,2-c]pyridin-6-yl)acetamide]
MLLT1 % Degradation @ 0.1 µM: C (Category C: 25% ≤ C < 50% degradation)
MLLT 1 % Degradation @ 1 µM: B (Category B: 50% ≤ B < 75% degradation)
